Reference: patent publication US10508120B2, “TYK2 inhibitors and uses thereof” (Nimbus Lakshmi, Inc., priority 2017, dated 2019)

How the values were obtained:
[1] = target: human TYK2 (JH2domain-pseudokinase) (Homo sapiens (Human), UniProt P29597); assay: TYK2 JH2 Domain Binding Assay (KINOMEscan)
How it was run: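 The construct was human TYK2 G556–D888 fused to the NFkB DNA-binding domain and expressed in HEK293 cells; unpurified extract was incubated with compound and liganded beads for 1 hour at room temperature.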

Tyk2 kinase domain (DH1) = Tyk2 kinase domain (DH1) (Homo sapiens (Human), UniProt P29597); assay: Tyk2 Radioactive Kinase Assay; type: biochemical; settings: compound at 10 μM, ATP 10 μM; for inhibition at 10 µM: read-out: Tyk2 JH1% Inhibition @ 10 μM
Sequence of Tyk2 kinase domain (DH1) (P29597 897-1176): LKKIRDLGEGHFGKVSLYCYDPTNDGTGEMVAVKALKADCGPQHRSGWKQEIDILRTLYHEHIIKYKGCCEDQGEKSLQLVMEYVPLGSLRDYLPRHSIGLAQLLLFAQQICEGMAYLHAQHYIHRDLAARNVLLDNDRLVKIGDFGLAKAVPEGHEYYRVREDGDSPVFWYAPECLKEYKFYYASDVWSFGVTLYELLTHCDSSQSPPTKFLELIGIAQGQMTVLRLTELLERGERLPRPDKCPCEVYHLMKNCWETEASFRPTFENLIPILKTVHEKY
How it was run: (§1)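 Read-out is percent inhibition from a radioactive kinase reaction, measured with compound at 10 μM.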

JAK2 kinase domain (JH1) = JAK2 kinase domain (JH1) (Homo sapiens (Human), UniProt O60674); assay: JAK2 Radioactive Kinase Assay; type: biochemical; settings: compound at 10 μM, ATP 10 μM; for inhibition at 10 µM: read-out: JAK2 JH1% Inhibition @ 10 μM
Sequence of JAK2 kinase domain (JH1) (O60674 849-1124): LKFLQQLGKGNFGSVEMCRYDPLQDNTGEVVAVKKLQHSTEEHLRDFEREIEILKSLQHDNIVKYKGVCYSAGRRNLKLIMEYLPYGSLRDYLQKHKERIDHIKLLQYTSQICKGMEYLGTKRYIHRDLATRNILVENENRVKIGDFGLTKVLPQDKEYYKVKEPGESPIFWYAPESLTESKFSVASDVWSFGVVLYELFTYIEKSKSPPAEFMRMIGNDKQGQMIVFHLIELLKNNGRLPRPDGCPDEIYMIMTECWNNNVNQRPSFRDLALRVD
How it was run: as §1

[2] = target: Tyk2/JAK2 (heterodimeric complex) (Homo sapiens (Human), UniProt P29597); assay: IL-12 Induced pSTAT4 in Human PBMC; type: cell-based; settings: 1.7 ng/mL IL-12
Sequence of Tyk2/JAK2 (heterodimeric complex) (P29597 whole entry, other chains not shown): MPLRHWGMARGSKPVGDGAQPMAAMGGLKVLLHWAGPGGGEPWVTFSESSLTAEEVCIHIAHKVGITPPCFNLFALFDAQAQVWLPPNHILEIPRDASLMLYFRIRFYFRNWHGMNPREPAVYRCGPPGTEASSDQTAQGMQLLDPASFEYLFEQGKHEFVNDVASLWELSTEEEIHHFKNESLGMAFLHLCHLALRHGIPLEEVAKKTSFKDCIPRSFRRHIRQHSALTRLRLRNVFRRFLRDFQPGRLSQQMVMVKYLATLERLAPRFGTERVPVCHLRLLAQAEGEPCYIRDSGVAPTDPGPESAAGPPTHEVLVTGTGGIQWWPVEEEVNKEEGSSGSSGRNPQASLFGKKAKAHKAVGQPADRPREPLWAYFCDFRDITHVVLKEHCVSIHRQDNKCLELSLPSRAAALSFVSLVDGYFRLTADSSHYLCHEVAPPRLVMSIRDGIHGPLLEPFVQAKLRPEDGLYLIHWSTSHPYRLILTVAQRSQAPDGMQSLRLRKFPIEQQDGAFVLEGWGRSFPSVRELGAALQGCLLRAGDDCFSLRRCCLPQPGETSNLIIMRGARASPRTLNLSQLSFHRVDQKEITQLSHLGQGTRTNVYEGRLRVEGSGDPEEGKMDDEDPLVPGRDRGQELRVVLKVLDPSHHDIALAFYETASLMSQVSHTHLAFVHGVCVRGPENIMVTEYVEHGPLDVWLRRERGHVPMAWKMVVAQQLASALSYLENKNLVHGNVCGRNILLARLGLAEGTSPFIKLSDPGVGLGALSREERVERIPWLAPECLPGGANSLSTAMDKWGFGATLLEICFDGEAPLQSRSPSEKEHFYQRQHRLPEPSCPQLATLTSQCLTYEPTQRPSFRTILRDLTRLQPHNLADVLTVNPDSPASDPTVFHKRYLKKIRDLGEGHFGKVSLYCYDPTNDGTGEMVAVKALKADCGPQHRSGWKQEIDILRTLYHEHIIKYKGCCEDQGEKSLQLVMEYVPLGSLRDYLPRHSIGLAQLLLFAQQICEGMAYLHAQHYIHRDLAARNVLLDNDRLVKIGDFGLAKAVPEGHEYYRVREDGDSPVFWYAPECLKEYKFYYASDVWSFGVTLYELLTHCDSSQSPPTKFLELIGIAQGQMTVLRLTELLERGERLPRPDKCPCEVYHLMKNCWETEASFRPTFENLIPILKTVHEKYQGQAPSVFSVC
Description: The IL-12 Induced pSTAT4 assay evaluates the inhibition of IL-12 induced STAT4 phophorylation mediated by Tyk2/JAK2 (heterodimeric complex).

[3] = target: JAK2/JAK2 homdimeric complex (Homo sapiens (Human), UniProt O60674); assay: GM-CSF Induced pSTAT5 in Human PBMC; type: cell-based; settings: GM-CSF 5 ng/mL for 20 minutes, pSTAT5 by MSD, read-out: PBMC_GMCSF_pSTAT5 IC50
Sequence of JAK2/JAK2 homdimeric complex (O60674 whole entry): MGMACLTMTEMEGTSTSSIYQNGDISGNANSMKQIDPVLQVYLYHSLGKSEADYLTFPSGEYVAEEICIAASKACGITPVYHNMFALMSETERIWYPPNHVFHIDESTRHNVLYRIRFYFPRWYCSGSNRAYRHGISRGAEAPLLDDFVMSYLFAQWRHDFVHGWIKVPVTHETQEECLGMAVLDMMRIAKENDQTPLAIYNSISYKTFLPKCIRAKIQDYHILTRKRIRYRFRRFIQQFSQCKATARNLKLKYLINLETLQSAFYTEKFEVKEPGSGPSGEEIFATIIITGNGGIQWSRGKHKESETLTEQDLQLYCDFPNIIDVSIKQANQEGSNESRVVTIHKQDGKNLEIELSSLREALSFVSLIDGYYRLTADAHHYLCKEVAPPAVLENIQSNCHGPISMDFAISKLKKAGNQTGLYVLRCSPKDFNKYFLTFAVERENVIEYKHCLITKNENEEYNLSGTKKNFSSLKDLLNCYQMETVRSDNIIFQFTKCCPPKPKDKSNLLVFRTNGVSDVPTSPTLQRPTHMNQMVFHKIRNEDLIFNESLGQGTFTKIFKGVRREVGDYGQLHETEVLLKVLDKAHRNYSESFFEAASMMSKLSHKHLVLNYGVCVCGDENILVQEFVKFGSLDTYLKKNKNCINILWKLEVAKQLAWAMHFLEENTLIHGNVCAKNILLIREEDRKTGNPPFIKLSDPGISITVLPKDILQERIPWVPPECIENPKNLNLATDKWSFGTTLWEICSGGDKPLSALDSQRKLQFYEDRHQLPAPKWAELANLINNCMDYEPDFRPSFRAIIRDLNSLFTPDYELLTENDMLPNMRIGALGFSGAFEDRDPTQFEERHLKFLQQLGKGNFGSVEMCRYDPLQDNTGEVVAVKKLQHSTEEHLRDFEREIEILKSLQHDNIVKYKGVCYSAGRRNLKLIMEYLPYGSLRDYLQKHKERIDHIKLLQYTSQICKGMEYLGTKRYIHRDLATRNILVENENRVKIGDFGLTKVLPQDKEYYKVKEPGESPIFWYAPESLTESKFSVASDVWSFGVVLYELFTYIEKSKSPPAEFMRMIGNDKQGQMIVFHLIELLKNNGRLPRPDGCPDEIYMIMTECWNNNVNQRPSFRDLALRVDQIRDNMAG
Sequence of JAK2/JAK2 homdimeric complex (P32927 17-897 partner): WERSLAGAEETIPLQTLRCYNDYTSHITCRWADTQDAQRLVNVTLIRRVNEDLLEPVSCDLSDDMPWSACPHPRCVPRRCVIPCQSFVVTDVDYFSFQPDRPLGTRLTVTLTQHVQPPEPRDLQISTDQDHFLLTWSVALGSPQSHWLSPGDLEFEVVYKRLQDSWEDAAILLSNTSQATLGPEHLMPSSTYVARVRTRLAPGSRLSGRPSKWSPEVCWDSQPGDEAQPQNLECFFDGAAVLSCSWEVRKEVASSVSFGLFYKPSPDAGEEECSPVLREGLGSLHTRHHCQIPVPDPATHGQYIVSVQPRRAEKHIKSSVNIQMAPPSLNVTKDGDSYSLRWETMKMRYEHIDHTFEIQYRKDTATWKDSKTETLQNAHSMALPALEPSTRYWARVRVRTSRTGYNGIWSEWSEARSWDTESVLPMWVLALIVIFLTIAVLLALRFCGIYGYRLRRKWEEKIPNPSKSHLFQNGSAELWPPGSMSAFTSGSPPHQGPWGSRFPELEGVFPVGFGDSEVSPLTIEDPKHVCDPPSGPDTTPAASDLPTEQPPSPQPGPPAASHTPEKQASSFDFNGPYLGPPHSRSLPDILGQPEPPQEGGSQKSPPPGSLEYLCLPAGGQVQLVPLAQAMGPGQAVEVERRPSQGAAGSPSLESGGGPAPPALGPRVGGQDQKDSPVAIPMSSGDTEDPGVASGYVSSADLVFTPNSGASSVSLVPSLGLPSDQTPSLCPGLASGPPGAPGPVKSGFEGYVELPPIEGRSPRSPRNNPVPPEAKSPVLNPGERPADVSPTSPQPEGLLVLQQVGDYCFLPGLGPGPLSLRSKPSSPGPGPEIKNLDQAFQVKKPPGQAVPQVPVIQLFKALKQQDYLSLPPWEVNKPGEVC

Sequence of human TYK2 (JH2domain-pseudokinase) (P29597 556-888): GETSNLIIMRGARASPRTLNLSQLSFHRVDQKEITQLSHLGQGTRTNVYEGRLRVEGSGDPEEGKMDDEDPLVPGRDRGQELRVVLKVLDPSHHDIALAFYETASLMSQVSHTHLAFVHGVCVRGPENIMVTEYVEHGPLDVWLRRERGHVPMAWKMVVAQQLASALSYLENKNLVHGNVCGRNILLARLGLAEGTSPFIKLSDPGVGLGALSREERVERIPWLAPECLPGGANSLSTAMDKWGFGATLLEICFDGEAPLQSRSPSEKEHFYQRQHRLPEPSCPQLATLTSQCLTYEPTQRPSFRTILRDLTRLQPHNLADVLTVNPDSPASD

Row | SMILES | Kd [1] | inhibition at 10 µM (Tyk2 kinase domain (DH1)) | inhibition at 10 µM (JAK2 kinase domain (JH1)) | IC50 [2] | IC50 [3] | Tyk2 JH1% Inhibition @ 10 μM (Tyk2 kinase domain (DH1)) | JAK2 JH1% Inhibition @ 10 μM (JAK2 kinase domain (JH1))
1 | CNc1cc(Nc2cccn(-c3cnc(C)o3)c2=O)nc2c(C(=O)N[C@H]3C[C@H]3F)cnn12 [I-718] | < 0.0002 µM | < 50% | < 50% | < 0.1 µM | > 12.5 µM |  | 
2 | CNc1cc(Nc2cc(F)cn(-c3cc(C)n(C)n3)c2=O)nc2c(C(=O)NC3CC3)cnn12 [I-384] | < 0.0002 µM | < 50% | < 50% | < 0.1 µM | > 0.3 µM |  | 
3 | CNc1cc(Nc2cccn(-c3cnc(C(=O)N(C)C)cn3)c2=O)nc2c(C(=O)NC3CC3)cnn12 [I-127, N-cyclopropyl-5-((1-(5-(dimethylcarbamoyl)pyrazin-2-yl)-2-oxo-1,2-dihydropyridin-3-yl)amino)-7-(methylamino)pyrazolo[1,5-a]pyrimidine-3-carboxamide] | < 0.0002 µM | < 50% | < 50% | < 0.1 µM | > 12.5 µM |  | 
4 | CNc1cc(Nc2cc(C)cc(F)c2)nc2c(C(=O)NC3CC3)cnn12 [I-6] | < 0.0002 µM | < 50% | < 50% | < 0.1 µM | > 50 µM |  | 
5 | [2H]C([2H])([2H])Oc1ncccc1Nc1cc(NC)n2ncc(C(=O)N[C@H]3CC[C@H](O)C3)c2n1 [I-500] | < 0.0002 µM |  |  | < 0.1 µM | > 50 µM | A (percent inhibition at 10 μM lower than 50) | A (percent inhibition at 10 μM lower than 50)
6 | CNc1cc(Nc2cccn(-c3cccnc3)c2=O)nc2c(C(=O)N[C@@H]3C[C@@H]3F)cnn12 [I-748] | < 0.0002 µM | < 50% | < 50% | < 0.1 µM | > 2.5 µM |  | 
7 | CNc1cc(Nc2cccn(-c3ccc(C4CC4)nn3)c2=O)nc2c(C(=O)N[C@H]3C[C@H]3F)cnn12 [I-165] | < 0.0002 µM | < 50% | < 50% | < 0.1 µM | > 2.5 µM |  | 
8 | CNc1cc(Nc2cccn(-c3cccc(C(C)(C)O)n3)c2=O)nc2c(C(=O)NC3CCC3)cnn12 [I-156] | < 0.0002 µM | < 50% | < 50% | < 0.1 µM | > 12.5 µM |  | 
9 | CNc1cc(Nc2cc(F)ccc2F)nc2c(C(=O)NC3CC3)cnn12 [I-3] | < 0.0002 µM | < 50% | < 50% | < 0.1 µM | > 12.5 µM |  | 
10 | CNc1cc(Nc2cccnc2OC2CC2)nc2c(C(=O)NCC(C)CO)cnn12 (stereo not drawn) [I-435] | < 0.0002 µM | < 50% | < 50% | 0.1 to 0.5 µM | > 50 µM |  | 
11 | CNc1cc(Nc2cccnc2OC)nc2c(C(=O)N[C@@H]3CC[C@H]3O)cnn12 [I-396] | < 0.0002 µM | < 50% | < 50% | < 0.1 µM | > 50 µM |  | 
12 | CNc1cc(-c2cn(C(C)C)c3ncccc23)nc2c(C(=O)N[C@H]3CC[C@H]3O)cnn12 [I-637] | < 0.0002 µM | < 50% | < 50% | < 0.1 µM | > 12.5 µM |  | 
